Results on 13 molecules are retold here after US10934258B2, “Materials for use in an aqueous organic redox flow battery” (Utah State University, priority 2016, dated 2021).

Converted amounts (≈) assume the structure as drawn. “And” between values parts separate entries of the source, which are not always exact repeats. Identical values can stand only once.

Data set [1] in a line: Solubility by preparing a super-saturated solution. The following applies: for solubility: thermodynamic from solid. Here is the method: Chemicals and Materials. All chemicals were purchased from Aldrich or TCI, stored in an Argon glovebox, and used directly. Solubility of substituted ferrocene compounds was measured in water by preparing a super-saturated solution in a volumetric cylinder. Deionized water was purged overnight using N2 before use. All experimental operations were conducted under a N2 atmosphere. Conductivity of the electrolyte solutions was measured using a Mettler Toledo conductivity meter at R.T. NMR studies were conducted using a Bruker 500 MHz NMR spectrometer. UV-Vis was collected using an Ocean Optic spectrometer. Elemental analysis was done at Atlantic Microlab.
Calculation of theoretical energy density: The theoretical energy density of the FcNCl/MV AORFB was calculated using equation 3 below, where n is the number of electrons involved into the cell reaction, C is the concentration of active materials, F is Faraday constant, 26.8 Ah/mol, V is the cell voltage, and 2 represents a factor considering both volumes of anolyte and catholyte. Solubility of FcNCl and MV was measured in water respectively by preparing a super-saturated solution. Similar solubility tests in water were applied for ferrocenecarboxylic acid, 1-1′-ferrocenedicarboxilic acid, ferrocenecarboxylic acid, and 1,1′-ferrocenedimethanol. Energy density (Wh/L)=nCFV/2 (equation 3)

Data set [2] is described as follows: Cyclic and square wave voltammetry (redox potentials). In kind it is physicochemical. The following applies: for redox / reversible oxidation potential of catholyte: electrolyte not stated; for Exp. E1/2, first reduction: first redox couple; for Exp. E1/2, first reduction / Exp. E1/2, second reduction / redox potential (redox wave in cyclic voltammogram): 4 mM in 0.5 M NaCl; for Exp. E1/2, second reduction: second redox couple. Here is the method: Electrochemical Cyclic voltammetry (CV) studies. All electrochemical CV experiments were carried out in 0.5 M NaCl electrolyte solutions. Cyclic voltammetry experiments were performed with a Gamry 1000E potentiostat. All potentials were referenced to NHE according to the known MV^2+/1+ redox couple (−0.45 V vs NHE). The working electrode (1 mm PEEK-encased glassy carbon, Cypress Systems EE040) was polished using Al2O3(BAS CF-1050, dried at 150° C. under vacuum) suspended in deionized H2O, then rinsed with deionized H2O and dried with an air flow. The reference electrode was a silver wire coated with a layer of AgCl and suspended in a solution of 0.5 M NaCl electrolyte. A glassy carbon rod (Structure Probe, Inc.) was used as the counter electrode.
Cyclic and square wave voltammetry studies: All experiments were conducted in an […], 0.5 M NaCl aqueous solution, and performed with a Gamry 1000E potentiostat. A 1 mm PEEK encased glassy carbon disk was used as the working electrode. The working electrode was polished with 0.05 micron Al2O3 powder and rinsed with deionized H2O. A glassy carbon rod was used as the counter electrode. A silver wire coated with AgCl and suspended in 3.0 M KCl electrolyte was used as the reference electrode.
The redox potentials were calculated directly versus MV which was derived from the Born-Haber method. This calculation predicts the redox potential of the viologen by comparing it to the experimentally determined potentials for MV. Square wave voltammetry was employed to most accurately measure E1/2 for the two reductions of viologen compounds (FIG. 42). The calculation of the theoretical redox potential vs MV can be simplified as shown below: […]

Data set [3] can be described thus: RDE linear sweep voltammetry with Levich and Tafel analysis. In kind it is physicochemical. The note with it: 1.0 mM in 0.5 M NaCl. Here is the method: Electrochemical RDE studies: All linear sweep voltammetry (LSV) studies were conducted using a Gamry 1000E potentiostat in a three-electrode configuration, a glassy carbon disk working electrode (5 mm Teflon encased glassy carbon disk, Pine Research Instrumentation) along with a glassy carbon counter electrode and a Ag/AgCl reference electrode same as used in CV studies. Before data collection, the disk electrode was prepared using the procedure described in the CV studies. The electrode was then rotated at from 300 to 2400 rpm with an increment of 300 rpm, which was controlled by a Pine MSR rotator system. LSV scans were recorded at a rate of 5 mV/s from 0.3 V to 0.8 V vs NHE. At each rotation rate, the LSV were recorded 3 times to ensure repeatability. The limiting currents (i.e. the mass transport-limited current intensity) were taken at 0.7 V vs NHE for FcNCl and plotted over the square root of the rotation rate (rad/s). The data were fitted to yield a straight Levich plot, with the slope defined by the Levich equation (equation 1 below), where n=1 for one electron process, Faraday's constant F=96485 C/mol, electrode area A=0.1935 cm^2, FcNCl concentration Co=1.0 mM, D is diffusion coefficient, kinematic viscosity n=0.009 cm^2/s for 0.5 M NaCl solution. The calculations yielded the diffusion coefficients of FcNCl as 3.25×10^−6 cm^2/s. A plot of overpotential versus log10(iK) was constructed for the LSV data collected at […] for FcNCl where iK is the kinetic current for the oxidation of FcNCl. […] Levich plot slope=0.620nFACOD^2/3v^−1/6 (equation 1) i0=FACOk0 (equation 2)
Electrochemical RDE studies: Linear sweep voltammetry (LSV) experiments were conducted using a Gamry 1000E potentiostat with a three-electrode system. A 5 mm rotating glassy carbon disk encased in Teflon served as the working electrode. A glassy carbon rod was used as the counter electrode. A Ag/AgCl wire served as the reference electrode. The working electrode was cleaned using the same method as in the CV experiments. During the experiments, the working electrode rotated from 300 rpm to 2400 rpm at increments of 300 rpm. Three scans at each rotation rate were collected to ensure accuracy. (NPr)2V: LSV scans were conducted at a rate of 5 mV/s from 0.1 V to −1.2 V versus NHE. The limiting currents (mass transport-limited current intensity) at each rotation rate were recorded at −0.57 V and −0.95 V versus NHE. […] The slopes of these fitted lines are defined by the Levich equation, Levich Plot Slope=0.620nFAC0D^2/3v^−1/6 (equation 1)
[…] Plots of overpotential versus log10(ik) were constructed from the 2400 rpm LSV, where ik is the kinetic current of each reduction of (NPr)2V. The x-intercept of the fitted Tafel plot represents the log of the exchange current i0 that is defined by: i0=FAC0k^0 (equation 2)
where F, A, and C0 are defined above, and k^0 represents the electron transfer rate constant.
(NPr)(SPr)V, (Me)(NPr)V, (SPr)2V, and [FcN^Et]Br: LSV scans were collected and analyzed using the same techniques described for (NPr)2V.

Data set [4] can be described thus: Conductivity of the electrolyte solutions. In kind it is physicochemical. On the set-up: electrolyte conductivity: unit not given here. Here is the method: Chemicals and Materials. […] Deionized water was purged overnight using N2 before use. All experimental operations were conducted under a N2 atmosphere. […] UV-Vis was collected using an Ocean Optic spectrometer. Elemental analysis was done at Atlantic Microlab.

Turning to `CC1(C)CC([N+](C)(C)C)CC(C)(C)N1[O].[Cl-]` [4-N^Me-TEMPO, N, N, N, 2,2,6,6-Heptamethylpiperidinyloxy-4-ammonium chloride], the “solubility in H2O” value in data set [1] is 2500 mM. Besides, the “redox / reversible oxidation potential of catholyte” value in data set [2] is reported as 1.06 V vs NHE.

As usually defined, the solubility is how much of the substance goes into solution per volume. `CC1(C)CC([N+](C)(C)CCC[N+](C)(C)C)CC(C)(C)N1O` [4-N^NPr-TEMPO, N^1, N^1, N^1, N^3, N^3,2,2,6,6-nonamethyl-N^3-(piperidinyloxy)propane-1,3-bis(ammonium) dichloride] returned a solubility in data set [1] (water) of 2300 mM. In addition, the “redox / reversible oxidation potential of catholyte” value in data set [2] is recorded as 1.06 V vs NHE.

In the case of `C[n+]1ccc(-c2cc[n+](CCC[N+](C)(C)C)cc2)cc1.[Cl-].[Cl-].[Cl-]` [(Me)(NPr)V, 1′-methyl-4′-pyridinium-1-[3-(trimethylaminium)propyl]-4-pyridinium trichloride], in data set [1], the “solubility in H2O” value stood at 1800 mM and the “solubility in water, [C]” value is 1800 mM. In addition, in data set [2], the “Exp. E1/2, first reduction” value is −0.39 V vs. NHE and the “Exp. E1/2, second reduction” value is on record as −0.78 V vs. NHE. For the same molecule, in data set [3] (Levich), the “diffusion constant, D, first reduction” value is 5.40 × 10^−6 cm^2/s and the “diffusion constant, D, second reduction” value is 5.29 × 10^−6 cm^2/s. Besides, in data set [3] (Tafel), the “electron transfer rate constant, k^0, first reduction” value worked out at 2.39e-05 cm/s and the “electron transfer rate constant, k^0, second reduction” value was determined as 1.84e-05 cm/s.

Consider `C[N+](C)(C)CCC[n+]1ccc(-c2cc[n+](CCC[N+](C)(C)C)cc2)cc1.[Br-].[Br-].[Br-].[Br-]` [(NPr)2V, 1,1′-bis[3-(trimethylamonium)propyl]-4,4′-bipyridinium, tetrabromide], for which, in data set [1], the “solubility in H2O” value turned out to be 1600 mM and the “solubility in water, [C]” value amounted to 1600 mM. For the same molecule, the “effective redox potential (average of the two reductions)” value in data set [2] (average of −0.35 and −0.72 V) was −0.54 V. Also, in data set [2], the “Exp. E1/2, first reduction” value is recorded as −0.35 V vs. NHE and the “Exp. E1/2, second reduction” value was −0.72 V vs. NHE. Also, in data set [3] (Levich), the “diffusion constant, D, first reduction” value is on record as 3.88×10^−6 cm^2/s and the “diffusion constant, D, second reduction” value is 3.84×10^−6 cm^2/s. Further, in data set [3] (Tafel), the “electron transfer rate constant, k^0, first reduction” value is 4.32e-06 cm/s and 4.32e-05 cm/s; the “electron transfer rate constant, k^0, second reduction” value was 2.46e-06 cm/s and 2.46e-05 cm/s.

As for `C[N+](C)(C)CCC[n+]1ccc(-c2cc[n+](CCCS(=O)(=O)[O-])cc2)cc1.[Br-].[Br-]` [(NPr)(SPr)V, 1′-[3-(trimethylammonium)propyl]-4′-pyridinium-1-[3-sulfonatopropyl]-4-pyridinium dibromide], in data set [1], the “solubility in H2O” value was determined as 1600 mM and the “solubility in water, [C]” value is 1600 mM. For the same molecule, in data set [2], the “Exp. E1/2, first reduction” value was −0.37 V vs. NHE and the “Exp. E1/2, second reduction” value is −0.74 V vs. NHE. Further, in data set [3] (Levich), the “diffusion constant, D, first reduction” value was 4.96 × 10^−6 cm^2/s and the “diffusion constant, D, second reduction” value is recorded as 5.04 × 10^−6 cm^2/s. Also, in data set [3] (Tafel), the “electron transfer rate constant, k^0, first reduction” value came out at 3.5e-05 cm/s and the “electron transfer rate constant, k^0, second reduction” value is 2.09e-05 cm/s.

On to `O=S(=O)([O-])CCC[n+]1ccc(-c2cc[n+](CCCS(=O)(=O)[O-])cc2)cc1` [(SPr)2V, 1,1′-bis[3-sulfonatopropyl]-4,4′-bipyridinium], for which the “solubility in water, [C]” value in data set [1] stood at 2000 mM (≈ 801 mg/mL). Also, the concentration in solution in data set [1] (saline or isotonic) (solubility) came to 1700 mM (≈ 681 mg/mL). In data set [1] (water), the solubility came to 2000 mM (≈ 801 mg/mL). Further, in data set [2], the “Exp. E1/2, first reduction” value is −0.43 V vs. NHE and the “Exp. E1/2, second reduction” value is reported as −0.79 V vs. NHE. Also, in data set [3] (Levich), the “diffusion constant, D, first reduction” value is reported as 3.26×10^−6 cm^2/s and the “diffusion constant, D, second reduction” value is on record as 2.81 × 10^−6 cm^2/s. In data set [3] (Tafel), the “electron transfer rate constant, k^0, first reduction” value came out at 1.49e-05 cm/s and the “electron transfer rate constant, k^0, second reduction” value was found to be 3.96e-05 cm/s. In data set [4] (0.6 M in 1.5 M KCl), this molecule yielded a conductivity of 103.2 mS/cm.

With `CC(C[N+](C)(C)C[c-]1cccc1)[N+](C)(C)C.[Br-].[Br-].[Fe+2].c1cc[cH-]c1` (stereo not shown) [FcN2, N^1-ferrocenylmethyl-N^1, N^1, N^2, N^2, N^2-pentamethylpropane-1,2-diaminium dibromide], in data set [2], the “redox potential (redox wave in cyclic voltammogram)” value is 0.62 V vs NHE.

In data set [1] (water), `C[N+](C)(C)C[c-]1cccc1.[Cl-].[Fe+2].c1cc[cH-]c1` [FcNCl, (ferrocenylmethyl)trimethylammonium chloride] had a solubility of approximately 4000 mM. Also, the “redox potential (redox wave in cyclic voltammogram)” value in data set [2] was 0.60 V vs NHE. The “diffusion coefficient (oxidation)” value in data set [3] (Levich) was 3.25×10^−6 cm^2/s and 3.74×10^−6 cm^2/s. Besides, in data set [3] (Tafel), the “electron transfer rate constant k0 (oxidation)” value is 2.29e-05 cm/s and 3.66e-05 cm/s. Also, the “exchange current i0” value in data set [3] (Tafel X-intercept) turned out to be 0.7 μA. In addition, the electrolyte conductivity in data set [4] (0.5 M in 2.0 M NaCl) is on record as 135.

As for `[I-].[K+]` [KI, reference compound], the “redox / reversible oxidation potential of catholyte” value in data set [2] is 0.65 V vs NHE.

In the case of `[Br-].[Br-].[Zn+2]` [ZnBr2, reference compound], the “redox potential (redox wave in cyclic voltammogram)” value in data set [2] is reported as −1.2 V vs NHE.

The molecule `CC[N+](C)(C)C[c-]1cccc1.[Br-].[Fe+2].c1cc[cH-]c1` [[FcN^Et]Br, (ferrocenylmethyl)ethyldimethylammonium bromide] came in with a solubility in data set [1] (water) of 3750 mM. For the same molecule, the “redox potential (redox wave in cyclic voltammogram)” value in data set [2] is 0.60 V vs NHE.

Consider `C[N+](C)(C)CCC[c-]1cccc1.[Cl-].[Fe+2].c1cc[cH-]c1` [prop-FcNCl, (ferrocenylpropyl)trimethylammonium chloride], for which the solubility in data set [1] (water) was approximately 2200 mM.

Regarding “disodium (ferrocenyl)sulfurtrioxide [FcS]”, the “redox potential (redox wave in cyclic voltammogram)” value in data set [2] is ~0.77 V vs NHE and 1.0 V vs NHE.
